In US8911710B2, “Intravascular contrast agents” (Agency for Science, Technology and Research, priority 2008, dated 2014):

Assay: Relaxivity measurement (T1 by inversion recovery spin echo in aqueous phantoms, Varian 9.4T MRI system)
Type: physicochemical
Conditions: 25° C., in H2O
Protocol: Relaxivity measurement and MRI were conducted on a Varian 9.4T MRI system (Palo Alto, Calif., USA). T1 was measured by inversion recovery spin echo in aqueous phantoms with concentrations 0.4, 0.2 0.1, 0.05, 0.025, 0.0125 and 0.00625 mM Gd. In vivo study was conducted on Wistar rats (male, weight 320-340 g) under 2% isoflurane anesthesia. CAs were injected (dosage: 0.04 mmol Gd/kg body weight) through tail vein. T1-weighted images were acquired every 6.4 s for 48 min with T1-weighted gradient echo sequence (TR/TE=50/3 ms, flip-angle=20 degree, resolution=[…], thickness=2 mm).

| Compound | relaxivity r1 |
| --- | --- |
| O=C([O-])CN1CCN(CC(=O)[O-])CCN(CC(=O)O)CCN(CC(=O)[O-])CC1.[Gd+3] [Gd-DOTA] | 3.9 mM⁻¹ s⁻¹ |
| O=C([O-])CN(CCN(CC(=O)[O-])CC(=O)O)CCN(CC(=O)[O-])CC(=O)O.[Gd+3] [Gd-DTPA] | 4.1 mM⁻¹ s⁻¹ |
